Data as given in PubChem BioAssay (NCI).
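Exposure lasted 48 hours, with cells grown in 96-well plates and compounds tested at five concentrations. TGI is the concentration that stops growth completely.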

Assays:
Test in all cases: DTP human tumour cell line panel, 48 h
[1] = tested on: SK-OV-3 ovarian
[2] = tested on: HCT-15 colon
[3] = tested on: ACHN renal
[4] = tested on: M19-MEL melanoma
[5] = tested on: SK-MEL-28 melanoma
[6] = tested on: HCC-2998 colon
[7] = tested on: UO-31 renal
[8] = tested on: A498 renal
[9] = tested on: HCT-116 colon
[10] = tested on: EKVX NSCLC
[11] = tested on: HOP-62 NSCLC
[12] = tested on: M14 melanoma
[13] = tested on: LOX IMVI melanoma
[14] = tested on: DLD-1 colon
[15] = tested on: SN12C renal
[16] = tested on: RPMI-8226 leukemia
[17] = tested on: MOLT-4 leukemia
[18] = tested on: OVCAR-5 ovarian
[19] = tested on: SK-MEL-2 melanoma
[20] = tested on: RXF 393 renal
[21] = tested on: HOP-92 NSCLC
[22] = tested on: UACC-257 melanoma
[23] = tested on: LXFL 529 NSCLC
[24] = tested on: XF 498 CNS
[25] = tested on: SNB-78 CNS
[26] = tested on: MALME-3M melanoma
[27] = tested on: NCI-H23 lung
[28] = tested on: SNB-75 CNS
[29] = tested on: SR leukemia
[30] = tested on: CAKI-1 renal
[31] = tested on: SF-268 CNS
[32] = tested on: U251 CNS
[33] = tested on: HL-60(TB) leukemia
[34] = tested on: KM12 colon
[35] = tested on: SW-620 colon
[36] = tested on: A549 NSCLC
[37] = tested on: DMS 273 small cell lung
[38] = tested on: OVCAR-8 ovarian
[39] = tested on: SNB-19 CNS
[40] = tested on: SF-539 CNS
[41] = tested on: NCI-H460 lung
[42] = tested on: HOP-18 NSCLC
[43] = tested on: TK-10 renal
[44] = tested on: NCI-H226 lung
[45] = tested on: K-562 leukemia
[46] = tested on: SF-295 CNS
[47] = tested on: HT29 colon
[48] = tested on: IGROV1 ovarian
[49] = tested on: 786-0 renal
[50] = tested on: CCRF-CEM leukemia
[51] = tested on: OVCAR-4 ovarian
[52] = tested on: KM20L2 colon
[53] = tested on: UACC-62 melanoma
[54] = tested on: NCI-H522 lung
[55] = tested on: SK-MEL-5 melanoma
[56] = tested on: COLO 205 colon
[57] = tested on: OVCAR-3 ovarian
[58] = tested on: DMS 114 small cell lung

With `CCCCn1/c(=N/C(=S)N(C)C)ss/c1=N\C(=S)N(C)C` the TGI [1] was over 100 µM, the TGI [2] was over 100 µM and the TGI [3] was over 100 µM. The TGI [4] was over 100 µM, the TGI [5] was over 100 µM and the TGI [6] was over 100 µM. For the same compound, the TGI [7] was over 100 µM, the TGI [8] was over 100 µM and the TGI [9] was over 100 µM. It also gave a TGI [10] of over 100 µM, a TGI [11] of over 100 µM and a TGI [12] of over 100 µM. For the same compound, the TGI [13] was over 100 µM, the TGI [14] was over 100 µM and the TGI [15] was over 100 µM. For the same compound, the TGI [16] was over 100 µM, the TGI [17] was over 100 µM and the TGI [18] was over 100 µM. For the same compound, the TGI [19] was over 100 µM, the TGI [20] was over 100 µM and the TGI [21] was over 100 µM. It also gave a TGI [22] of over 100 µM, a TGI [23] of over 100 µM and a TGI [24] of over 100 µM. For the same compound, the TGI [25] was over 100 µM, the TGI [26] was over 100 µM and the TGI [27] was over 100 µM. It also gave a TGI [28] of over 100 µM, a TGI [29] of over 100 µM and a TGI [30] of over 100 µM. For the same compound, the TGI [31] was over 100 µM, the TGI [32] was over 100 µM and the TGI [33] was over 100 µM. It also gave a TGI [34] of over 100 µM, a TGI [35] of over 100 µM and a TGI [36] of over 100 µM. For the same compound, the TGI [37] was over 100 µM, the TGI [38] was over 100 µM and the TGI [39] was over 100 µM. The TGI [40] was over 100 µM, the TGI [41] was over 100 µM and the TGI [42] was over 100 µM. The TGI [43] was over 100 µM, the TGI [44] was over 100 µM and the TGI [45] was over 100 µM. For the same compound, the TGI [46] was over 100 µM, the TGI [47] was over 100 µM and the TGI [48] was over 100 µM. It also gave a TGI [49] of over 100 µM, a TGI [50] of over 100 µM and a TGI [51] of over 100 µM. The TGI [52] was over 100 µM and the TGI [53] was over 100 µM.

Compound `O=[N+]([O-])c1ccc(NSc2ccccc2)cc1` has a TGI [1] of 87.3 µM, a TGI [2] of over 100 µM and a TGI [3] of over 100 µM. It also gave a TGI [5] of over 100 µM, a TGI [6] of over 100 µM and a TGI [7] of over 100 µM. It also gave a TGI [9] of over 100 µM, a TGI [10] of 90.1 µM and a TGI [11] of over 100 µM. The TGI [54] was 39.4 µM, the TGI [12] was 64.5 µM and the TGI [13] was 28 µM. It also gave a TGI [14] of 64 µM, a TGI [15] of 35.5 µM and a TGI [17] of 49.4 µM. It also gave a TGI [18] of over 100 µM, a TGI [19] of over 100 µM and a TGI [20] of 40.9 µM. It also gave a TGI [55] of over 100 µM, a TGI [56] of over 100 µM and a TGI [21] of over 100 µM. It also gave a TGI [57] of over 100 µM, a TGI [22] of over 100 µM and a TGI [23] of 70.9 µM. The TGI [24] was 95.3 µM, the TGI [25] was over 100 µM and the TGI [26] was over 100 µM. For the same compound, the TGI [27] was over 100 µM, the TGI [29] was 63.2 µM and the TGI [31] was over 100 µM. The TGI [32] was over 100 µM, the TGI [33] was 47.5 µM and the TGI [34] was over 100 µM. The TGI [35] was over 100 µM, the TGI [36] was over 100 µM and the TGI [58] was over 100 µM. It also gave a TGI [37] of 33.7 µM, a TGI [38] of 45.6 µM and a TGI [39] of over 100 µM. It also gave a TGI [40] of 44.6 µM, a TGI [41] of over 100 µM and a TGI [42] of over 100 µM. For the same compound, the TGI [43] was over 100 µM, the TGI [45] was over 100 µM and the TGI [46] was 79 µM. For the same compound, the TGI [48] was 27.7 µM, the TGI [49] was 30.8 µM and the TGI [50] was over 100 µM. The TGI [52] was over 100 µM and the TGI [53] was 55.7 µM.

In the case of `COC(=O)C(CC(=O)c1cc2c(cc1I)OCO2)Cc1cc(OC)c(OC)c(OC)c1I` (centres undefined), the TGI [1] was over 100 µM, the TGI [2] was over 100 µM and the TGI [3] was over 100 µM. It also gave a TGI [4] of over 100 µM, a TGI [5] of over 100 µM and a TGI [6] of over 100 µM. The TGI [9] was over 100 µM, the TGI [10] was over 100 µM and the TGI [11] was over 100 µM. It also gave a TGI [54] of over 100 µM, a TGI [13] of over 100 µM and a TGI [14] of over 100 µM. For the same compound, the TGI [15] was over 100 µM, the TGI [16] was over 100 µM and the TGI [17] was over 100 µM. It also gave a TGI [18] of over 100 µM, a TGI [19] of over 100 µM and a TGI [20] of over 100 µM. For the same compound, the TGI [55] was over 100 µM, the TGI [56] was over 100 µM and the TGI [21] was over 100 µM. The TGI [57] was over 100 µM, the TGI [22] was over 100 µM and the TGI [23] was over 100 µM. The TGI [24] was over 100 µM, the TGI [26] was over 100 µM and the TGI [27] was over 100 µM. It also gave a TGI [29] of over 100 µM, a TGI [30] of over 100 µM and a TGI [31] of over 100 µM. The TGI [32] was over 100 µM, the TGI [33] was over 100 µM and the TGI [34] was over 100 µM. For the same compound, the TGI [35] was over 100 µM, the TGI [36] was over 100 µM and the TGI [58] was over 100 µM. It also gave a TGI [37] of over 100 µM, a TGI [38] of over 100 µM and a TGI [39] of over 100 µM. For the same compound, the TGI [40] was over 100 µM, the TGI [41] was over 100 µM and the TGI [42] was over 100 µM. For the same compound, the TGI [43] was over 100 µM, the TGI [44] was over 100 µM and the TGI [45] was over 100 µM. The TGI [46] was over 100 µM, the TGI [47] was over 100 µM and the TGI [48] was over 100 µM. For the same compound, the TGI [49] was over 100 µM, the TGI [50] was over 100 µM and the TGI [52] was over 100 µM. For the same compound, the TGI [53] was over 100 µM.

With `COC1C=CC23c4cc5c(cc4C(O)OC2CN(C)C3C1)OCO5` (centres undefined) the TGI [3] was 10.1 µM, the TGI [4] was 8.82 µM and the TGI [6] was 5.71 µM. The TGI [7] was 9.3 µM, the TGI [8] was 9.89 µM and the TGI [9] was 10.1 µM. For the same compound, the TGI [10] was 32.9 µM, the TGI [11] was 17.9 µM and the TGI [54] was 7 µM. It also gave a TGI [12] of 3.15 µM, a TGI [13] of 6.85 µM and a TGI [15] of 7.88 µM. It also gave a TGI [16] of 8.34 µM, a TGI [17] of 5.32 µM and a TGI [18] of 39.9 µM. It also gave a TGI [55] of 1.65 µM, a TGI [56] of 2.99 µM and a TGI [57] of 5.8 µM. It also gave a TGI [22] of 7.3 µM, a TGI [23] of 9.55 µM and a TGI [26] of 6.49 µM. For the same compound, the TGI [27] was 27.4 µM, the TGI [29] was 4.59 µM and the TGI [30] was 24.8 µM. The TGI [31] was 26.9 µM, the TGI [33] was 3.17 µM and the TGI [34] was 13.4 µM. For the same compound, the TGI [35] was 11.6 µM, the TGI [36] was 9.49 µM and the TGI [58] was 6.05 µM. It also gave a TGI [37] of 6.87 µM, a TGI [38] of 9.2 µM and a TGI [39] of 7.36 µM. It also gave a TGI [40] of 3.65 µM, a TGI [41] of 56.7 µM and a TGI [44] of 5.36 µM. It also gave a TGI [45] of 14.3 µM, a TGI [46] of 9.59 µM and a TGI [48] of 22.3 µM. For the same compound, the TGI [49] was 11 µM, the TGI [50] was 7.21 µM and the TGI [51] was 9.77 µM. The TGI [52] was 9.1 µM and the TGI [53] was 58.8 µM.
